Measurements as given in ChEMBL document CHEMBL2163299, “Cytotoxic effects of combination of oxidosqualene cyclase inhibitors with atorvastatin in human cancer cells” (J Med Chem, 2012).
Activity calls are given as the source filed them. The calls are words filed in the database; no cut-off is given here.

What was measured:
[1] = Chemical stability of compound at pH 4.0 after 24 hrs; assay type: physicochemical; conditions: buffer, pH 4, 24 h
[2] = Chemical stability of compound at pH 7.4 after 24 hrs; assay type: physicochemical; conditions: buffer, pH 7.4, 24 h
[3] = target: T1, Lanosterol synthase (Homo sapiens, UniProt P48449); experiment: Inhibition of human liver microsome 2,3-OSC after 1 hr by Silica gel plate phosphor imaging
T1 sequence (P48449 whole entry): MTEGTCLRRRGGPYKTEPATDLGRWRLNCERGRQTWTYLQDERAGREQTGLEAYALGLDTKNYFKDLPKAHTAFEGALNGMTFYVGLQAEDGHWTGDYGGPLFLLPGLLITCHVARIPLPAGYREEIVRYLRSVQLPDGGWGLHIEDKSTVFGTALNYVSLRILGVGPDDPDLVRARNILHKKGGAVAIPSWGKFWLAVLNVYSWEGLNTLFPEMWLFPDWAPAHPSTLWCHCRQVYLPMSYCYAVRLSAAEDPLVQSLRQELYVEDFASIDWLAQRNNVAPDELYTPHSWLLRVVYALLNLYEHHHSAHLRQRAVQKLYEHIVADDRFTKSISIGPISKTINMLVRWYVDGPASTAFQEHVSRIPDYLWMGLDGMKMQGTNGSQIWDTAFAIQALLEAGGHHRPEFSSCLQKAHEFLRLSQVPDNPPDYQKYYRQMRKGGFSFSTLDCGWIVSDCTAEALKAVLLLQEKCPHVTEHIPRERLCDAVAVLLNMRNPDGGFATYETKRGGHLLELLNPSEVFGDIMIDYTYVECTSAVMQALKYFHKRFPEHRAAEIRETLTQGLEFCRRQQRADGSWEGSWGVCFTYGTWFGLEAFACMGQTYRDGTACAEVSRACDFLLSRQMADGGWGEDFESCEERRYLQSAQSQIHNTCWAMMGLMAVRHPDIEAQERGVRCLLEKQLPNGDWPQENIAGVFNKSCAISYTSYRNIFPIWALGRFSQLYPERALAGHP

[4] = test system: A549; experiment: Cytotoxicity against human A549 cells after 72 hrs by MTT assay; assay type: functional, cell-based; conditions: A549, 72 h
[5] = test system: KB; experiment: Cytotoxicity against human KB cells after 72 hrs by MTT assay; assay type: functional, cell-based
[6] = test system: LNCaP; experiment: Cytotoxicity against human LNCAP cells after 72 hrs by MTT assay; assay type: functional, cell-based
[7] = Cytotoxicity against human LNZ308 cells after 72 hrs by MTT assay; assay type: functional, cell-based; conditions: LNZ308, 72 h
[8] = Cytotoxicity against human Me300 cells after 72 hrs by MTT assay; assay type: functional, cell-based; conditions: Me300, 72 h
[9] = test system: OVCAR; experiment: Cytotoxicity against human OVCAR cells after 72 hrs by MTT assay; assay type: functional, cell-based
[10] = test system: LN-18; experiment: Inhibition of DNA synthesis in human LN18 cells assessed as inhibition of tritiated thymidine incorporation at 1 to 3 uM after 24 hrs by beta counting; assay type: functional, cell-based
[11] = test system: LN-229; experiment: Inhibition of DNA synthesis in human LN229 cells assessed as inhibition of tritiated thymidine incorporation at 1 to 3 uM after 24 hrs by beta counting; assay type: functional, cell-based
[12] = Cytotoxicity against human LN18 cells assessed as reduction in cell survival after 72 hrs by MTT assay; assay type: functional, cell-based; conditions: LN-18, 72 h
[13] = Cytotoxicity against human LN229 cells assessed as reduction in cell survival after 72 hrs by MTT assay; assay type: functional, cell-based; conditions: LN-229, 72 h
[14] = pampa, pH 6.5
Description: Permeability of compound at pH 6.5 assessed as compound binding to lipid membrane by PAMPA

[15] = test system: Caco-2; experiment: cells; conditions: Homo sapiens, Caco-2, 72 h
Description: Cytotoxicity against human Caco2 cells after 72 hrs by MTT assay

[16] = test system: HeLa; experiment: cells; conditions: Homo sapiens, 72 h
Description: Cytotoxicity against human HeLa cells after 72 hrs by MTT assay

[17] = test system: MCF7; experiment: cells; conditions: Homo sapiens, MCF7, 72 h
Description: Cytotoxicity against human MCF7 cells after 72 hrs by MTT assay

[18] = cells; conditions: Homo sapiens, HCEC, 72 h
Description: Cytotoxicity against human HCEC cells assessed as reduction in cell survival after 72 hrs by MTT assay

[19] = physchem; conditions: 1-octanol/TAPSO buffer, pH 7.4
Description: 1-Octanol-TAPSO buffer distribution coefficient, log D of the compound at pH 7.4 by shake-flask method

[20] = in vitro; conditions: pampa, pH 6.5
Description: Apparent permeability of compound at pH 6.5 by PAMPA

[21] = test system: LN-18; experiment: Inhibition of lipid synthesis in human LN18 cells assessed as [14C]acetate incorporation after 24 hrs by Beta-counting; assay type: functional, cell-based
[22] = test system: LN-229; experiment: Inhibition of lipid synthesis in human LN229 cells assessed as [14C]acetate incorporation after 24 hrs by Beta-counting; assay type: functional, cell-based

| Compound | Stability [1] | Stability [2] | IC50 [3] | IC50 [4] | IC50 [5] | IC50 [6] | IC50 [7] | IC50 [8] | IC50 [9] | inhibition [10] | inhibition [11] | IC50 [12] | IC50 [13] | permeability [14] | IC50 [15] | IC50 [16] | IC50 [17] | IC50 [18] | logD [19] | Papp [20] | also measured |
| --- | --- | --- | --- | --- | --- | --- | --- | --- | --- | --- | --- | --- | --- | --- | --- | --- | --- | --- | --- | --- | --- |
| CCN(CCO)C[C@H]1CC[C@H](CCN(C)C(=O)Oc2ccc(C(F)(F)F)cc2)CC1.O=C(O)CC(O)(CC(=O)O)C(=O)O | Stable | Stable | 0.0127 µM | 22.7 µM | 10 µM | > 30 µM | 23.2 µM | > 30 µM | > 30 µM | Active | Active | 18.9 µM | > 30 µM | 5% | 10 µM | 10 µM | > 30 µM | > 30 µM | 2.53 | 5.11 ×10⁻⁶ cm/s | – |
| CCCN(C)CCCC#C[C@H]1CC[C@H](N(C)C(=O)Oc2ccc(Cl)cc2)CC1.O=C(O)/C=C/C(=O)O | Stable | Stable | 0.0078 µM | 8.41 µM | 4.53 µM | 18.7 µM | 12.6 µM | 18.9 µM | > 30 µM | Active | Active | 28 µM | > 30 µM | 0% | 6.75 µM | 6.82 µM | > 30 µM | 26.3 µM | 3.28 | 0.81 ×10⁻⁶ cm/s | – |
| CN(CCO)CCCCC[C@H]1CC[C@H](N(C)S(=O)(=O)c2ccc(C(F)(F)F)cc2)CC1.O=C(O)/C=C/C(=O)O | Stable | Stable | 0.0112 µM | 6.09 µM | 4.28 µM | > 30 µM | > 30 µM | 20.9 µM | > 30 µM | Active | Active | > 30 µM | > 30 µM | 50% | 2.67 µM | 4.53 µM | 12.3 µM | 19 µM | 3.07 | 1.79 ×10⁻⁶ cm/s | – |
| C=CCN(C)CCCCC[C@H]1CC[C@H](N(C)C(=O)Oc2ccc(C(F)(F)F)cc2)CC1.O=C(O)CC(O)(CC(=O)O)C(=O)O | Stable | Stable | 0.005 µM | 6.93 µM | 1.02 µM | 4.62 µM | 2.1 µM | 16 µM | 12.9 µM | Active | Active | 2.8 µM | 8.3 µM | 25% | 6.3 µM | 1.06 µM | 20.7 µM | 5.1 µM | 3.48 | 13 ×10⁻⁶ cm/s | – |
| CC(C)c1c(C(=O)Nc2ccccc2)c(-c2ccccc2)c(-c2ccc(F)cc2)n1CC[C@@H](O)C[C@@H](O)CC(=O)O [ATORVASTATIN CALCIUM] | – | – | – | > 30 µM | 1.97 µM | > 30 µM | 7.44 µM | 1.2 µM | > 30 µM | Active | Active | 6.9 µM | 8.1 µM | – | – | 4.22 µM | > 30 µM | – | – | – | inhibition [21]: Dose-dependent effect; inhibition [22]: Dose-dependent effect |
